SMILES strings stand for the structures.

In one data set the test system is HD transgenic mice (R62). Description: Fasting glucose levels in blood. It counts as in vivo. The note with it: 6 hours of fasting, intraperitoneal delivery. From the text:
FIG. 10B is a table showing the effect of intraperitoneal delivery of Congo red or PBS (vehicle) on fasting glucose levels in wild-type (WT) or HD transgenic mice.
In addition, the ability of Congo red to inhibit the formation as well as to disrupt preformed polyglutamine oligomers allowed us to examine the role of polyglutamine aggregates in neuronal dysfunction and degeneration characteristic of polyglutamine expansion diseases. In these studies, we used the animal model of Huntington's disease (R62), which expresses the truncated form of huntingtin with 139 CAG repeats Mangiarini et al. (supra). We took advantage of our finding that in addition to inhibiting polyglutamine oligomerization, Congo red also disrupts pre-formed oligomers, thus allowing assessment of the impact of Congo red on disease progression after formation of polyglutamine aggregates and the onset of symptoms. R62 transgenic mice and CBAxC57B1/6 F1 wild type littermates were obtained from Jackson Laboratories (Bar Harbor, Me.) at the age of five weeks. […]
R62 mice also develop severe diabetes due to the presence of polyglutamine aggregates in the pancreas. […] The levels of glucose in the blood after 6 hours of fasting were measured from the serum using the Accu-Check strip kit (Roche, Co.).

The subject of data set [1] is HeLa cells transfected with the Q79-GFP plasmid. Description: Cell death by receptor-mediated pathways (TNF-α or anti-FasR with cycloheximide). The note with it: Congo red 100 μM, 72 hours. It counts as cell-based. The protocol:
FIG. 4B is a graph showing the effect of Congo red (CR) on the induction of cell death by receptor-mediated pathways. HeLa cells transfected with a Q79-GFP plasmid were treated with TNF-a or anti-FasR and cycloheximide (CHX), in the presence or absence of CR (100 μM). The amount of cell death was measured 72 hours after transfection.
The effect of Congo red on the induction of cell death by receptor-mediated pathways was also evaluated. Once again, HeLa cells were transfected with the Q79-GFP plasmid, and six hours later were administered Tumor Necrosis Factor-alpha (TNF-α) or anti-FasR in the presence of cycloheximide (CHX). The samples were then incubated with or without Congo red (100 μM). The amount of cell death was measured 72 hours after exposure to the compounds (FIG. 4B).

Data set [2] concerns HeLa cells expressing Q79 expanded polyglutamine repeats. The experiment in a line: Cell death induced by TNF-α/CHX, Fas/CHX or H2O2. The note with it: 100 μM, one hour before the inducing agent; cell death 48 hours later. The data set is classed as cell-based. How it is done:
FIG. 5F is a graph of the effects of Congo red, ZVAD, or vehicle (NT) on cell death when the cells are induced to die by receptor mediated pathways (TNF-α/cycloheximide (CHX), Fas/cycloheximide (CHX)), or necrosis (hydrogen peroxide).
HeLa cells expressing Q79 expanded polyglutamine repeats were treated with 100 μM Congo red, or 100 μM ZVAD (a positive control) for one hour prior to the addition of the apoptosis-inducing agent, and cell death was determined 48 hours later. […] Finally we tested whether Congo red can inhibit apoptosis induced by overexpression of caspase-1, -8, or -11.

A further data set has as its system R62 transgenic mice. Description: Rotorod, muscle strength, first study. The data set is classed as in vivo. The note with it: R62Tg mice; 10 rpm, maximum 60 seconds; versus R62Tg without Congo red. How it is done: FIG. 9 is a graph showing the effect of intraperitoneal injection of Congo red on the motor performance in the mouse model of Huntington's disease (R62). Wild type mice or R62 transgenic mice carrying a polyglutamine repeat (R62Tg) were injected with either 0.5 ml of 1 mg/ml Congo red in phosphate buffered saline (PBS) or PBS alone and tested for their muscle strength by measuring their ability to remain on the rotorod at 10 rpm for a maximum period of 60 seconds.
Transgenic R62 mice that express the human Huntington's disease gene (carrying a 139-157 CAG repeat; Mangiarini et al., Cell 87:493-506, 1996; Carter et al., J. Neurosci. 19:3248-3257, 1999; and Levine et al., J. Neurosci. Res. 58:515-532, 1999) were used to examine the effects of Congo red on cell death or toxicity. […]
The latter procedure involved administration of 0.25 μl of the drug (1 mg/ml in 0.4% DMSO) per hour, for a period of at least 28 days. […] Polyglutamine inclusions were readily detected at the beginning of treatment. The effect of Congo red on the polyglutamine-induced toxicity in muscle strength in the animal model R62 was quantified by the use of a rotorod.
The mice were trained every day for a week after which time the latency to fall from a rotorod at a speed of 10 rpm was measured for each mouse, with a maximum time of 60 seconds per trial, as described by Carter et al., (J. Neurosci. 19:3248-3257, 1999). […]
Background: In the rotarod test animals must keep their balance on a rotating rod.

The next data set deals with cells; primary neurons. The experiment in a line: Compound toxicity in cells. The data set is classed as cell-based.

In the case of `Nc1c(/N=N/c2ccc(-c3ccc(/N=N/c4cc(S(=O)(=O)O)c5ccccc5c4N)cc3)cc2)cc(S(=O)(=O)O)c2ccccc12` [Congo red, diphenyldiazo-bis-alpha-napthylaminesulfonate], the “fasting glucose levels in blood” value in the data set on HD transgenic mice (R62) was “reduced the fasting glucose levels in blood”. For the same compound, the “induction of cell death by receptor-mediated pathways” value in data set [1] is “does not alter the induction of cell death by receptor-mediated pathways”. The “cell death induced by TNF-α/CHX, Fas/CHX, or H2O2” value in data set [2] is “No effect”. For the same compound, the “ability to remain on the rotorod” value in the data set with R62 transgenic mice is “exhibited a better ability to remain on the rotorod”. The “compound toxicity in cells” value in the data set on cells; primary neurons was “not toxic even to primary neurons”.

Values taken from US20020155172A1, “Methods and compounds for decreasing cell toxicity or death” (priority 2000, published 2002).
